One assay concerns the target T1, full-length HAQ STING (Homo sapiens, UniProt Q86WV6, G230A/H232R/R293Q/R71H).
T1 construct: made in house; host or cells: Trichoplusia ni (Hi-Five) insect cells, baculovirus generated in Sf21; crude membranes
Kind of assay: 3H-cGAMP filtration binding assay (HAQ STING). The following applies: competition with tritiated cGAMP ligand; T. ni cell membranes overexpressing full-length HAQ STING.

Assay [1] deals with IFN-β secretion from THP1 cells. Kind of assay: IFN-β secretion in THP1 cell culture (5 h). It counts as cell-based, human. Conditions: THP1 cells, 5 h incubation, compound at 30 μM, 30 uM cGAMP = 100%; for activation at 30 µM: Homo sapiens, THP-1, 5 h, read-out: % Effect at 30 μM relative to 2′3′-cGAMP. The gist of the method: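 THP1 cells at 0.8×10^6/mL were incubated with compounds for 5 h at 37 °C, and secreted IFN-β in the supernatant was measured by AlphaLISA. Percent effect was normalised to 30 uM cGAMP (positive) and 0.3% DMSO (negative) controls. EC50 came from a 4-parameter fit.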

Another assay has as its target T2, full-length WT STING (Homo sapiens, UniProt Q86WV6, H232R).
T2 construct: made in house; host or cells: Trichoplusia ni insect cells, baculovirus generated in Sf21; crude membranes
Kind of assay: 3H-cGAMP filtration binding assay (WT STING). The following applies: competition with tritiated cGAMP ligand; T. ni cell membranes overexpressing full-length WT STING. The protocol:
The ability of compounds to bind STING is quantified by their ability to compete with tritiated cGAMP ligand for human STING receptor membrane using a radioactive filter-binding assay. The binding assay employs STING receptor obtained from Trichoplusia ni cell membranes (T. ni; Expression Systems, cat #94-002F, www.expressionsystems.com) overexpressing full-length WT STING and tritiated cGAMP ligand.
The basic WT STING filtration assay protocol is as follows:
16 nM of [^3H] c-GAMP ligand was prepared by diluting into assay buffer, and 50 uL of this working stock was manually added to each well of the assay plate. After ligand addition, 2 uL of either titrated test compound, DMSO control (Sigma #276855), or cold cGAMP control was added to the appropriate wells using a BIOMEK FX. The serially titrated compound was prepared on a Hamilton STARPlus CORE in a 96-well plate (Greiner, #651201) using a 1:3 ten-point dose response format. Following compound addition, a 2.2 ug/ml working concentration of STING membrane (SEQ. ID. No. 3) was prepared by diluting concentrated membrane into assay buffer (1×PBS; Invitrogen #SH30028.02) and douncing 7× using a manual tissue homogenizer (Wheaton, #357546). 148 uL of this prepared membrane was then manually added to each well of a 96-well deep-well polypropylene plate (Fisher Scientific, #12-566-121). Compound, ligand, and membrane then incubated for 60 min at RT before the contents of each assay plate were filtered through a 96-well GF/B filter plate (PerkinElmer, #6005250) using a TOMTEC MACH III Cell Harvester equipped with 20 mM HEPES buffer (Fisher Scientific, #BP299500). The filter plates were then dried at 55° C. for 30 min using a pressurized VWR oven before 30 uL of ULTIMA GOLD F scintillate was added to each well. Tritium levels for each reaction well were then measured using a PerkinElmer TopCount plate reader.
After normalization to controls, the percent activity for each compound concentration was calculated by measuring the amount of remaining radioactivity. The plot of percent activity versus the log of compound concentration was fit with a 4-parameter dose response equation to calculate EC50 values.

SMILES strings stand for the structures.

T2 sequence (Q86WV6 with tags, fused parts or gaps H232R): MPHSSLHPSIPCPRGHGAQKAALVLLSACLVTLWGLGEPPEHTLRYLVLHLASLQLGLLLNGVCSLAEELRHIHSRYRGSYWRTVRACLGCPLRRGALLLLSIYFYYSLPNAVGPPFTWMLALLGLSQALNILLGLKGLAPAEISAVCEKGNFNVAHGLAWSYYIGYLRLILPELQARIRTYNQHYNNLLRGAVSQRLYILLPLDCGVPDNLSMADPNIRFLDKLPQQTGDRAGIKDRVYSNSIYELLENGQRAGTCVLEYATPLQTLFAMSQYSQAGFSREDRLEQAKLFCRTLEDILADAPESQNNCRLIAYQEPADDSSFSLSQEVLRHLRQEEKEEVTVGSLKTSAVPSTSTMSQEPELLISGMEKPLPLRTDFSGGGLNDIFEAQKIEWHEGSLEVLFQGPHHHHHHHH
T1 sequence (Q86WV6 with tags, fused parts or gaps R71H/G230A/H232R/R293Q): as the sequence (Q86WV6 with tags, fused parts or gaps H232R) above, with R71H, G230A, R293Q counted along it

In general, EC50 refers to the concentration at which the effect is half-maximal. For `Nc1nc2c(nnn2[C@@H]2O[C@@H]3COP(=O)(S)O[C@H]4[C@H](F)[C@H](n5ccc6c(=O)[nH]cnc65)O[C@@H]4COP(=O)(S)O[C@@H]2[C@H]3F)c(=O)[nH]1` (stereo partly drawn) [Example 48, 5-amino-3-[(5R,7R,8S,12aR,14R,15S,15aR,16S)-15,16-difluoro-2,10-dioxido-14-(4-oxo-3,4-dihydro-7H-pyrrolo[2,3-d]pyrimidin-7-yl)-2,10-disulfanyl-octahydro-12H-5,8-methanofuro[3,2-l] [1,3,6,9,11,2,10]pentaoxadiphosphacyclotetradecin-7-yl]-3,6-dihydro-7H-[1,2,3]triazolo[4,5-d]pyrimidin-7-one], the results for the EC50 on full-length HAQ STING and on full-length WT STING were 2 nM and 205 nM, respectively. The activation at 30 µM in assay [1] was determined as 159%.
In the same order, the values of `Nc1ncnc2c1ncn2[C@@H]1O[C@@H]2CO[P@@](=O)(S)O[C@@H]3[C@H](O)[C@@H](CO[P@](=O)(S)O[C@H]2[C@H]1O)O[C@H]3n1ccc(=O)n2ccnc12` [Example 2, 8-[(2S,5R,7R,8R,10R,12aR,14R,15R,15aS,16R)-14-(6-amino-9H-purin-9-yl)-15,16-dihydroxy-2,10-dioxido-2,10-disulfanyloctahydro-12H-5,8-methanofuro[3,2-l][1,3,6,9,11,2,10]pentaoxadiphospha-cyclotetradecin-7-yl]imidazo[1,2-a]pyrimidin-5(8H)-one] are 2 nM, 32 nM and 44%.
As to `Nc1nc2c(nnn2[C@@H]2S[C@@H]3COP(=O)(S)O[C@H]4[C@H](F)[C@H](n5ccc6c(=O)[nH]cnc65)O[C@@H]4COP(=O)(S)O[C@@H]2[C@@H]3F)c(=O)[nH]1` (single isomer, unassigned) [Example 50], the values for the EC50 on full-length HAQ STING and at full-length WT STING were 4 nM and 9130 nM, respectively. For the same compound, the “% Effect at 30 μM relative to 2′3′-cGAMP” value in assay [1] was found to be 109%.
In the same order, the values of `Nc1nc2c(ncn2[C@@H]2O[C@@H]3COP(=O)(S)O[C@H]4[C@H](F)[C@H](n5ccc6c(=O)[nH]cnc65)O[C@@H]4COP(=O)(S)O[C@@H]2[C@@H]3F)c(=O)[nH]1` (single isomer, unassigned) [Example 40] are 5 nM, 2830 nM and 150%.
The corresponding values for `Nc1nc2c(nnn2[C@@H]2O[C@@H]3COP(=O)(S)O[C@H]4C[C@H](n5ccc6c(=O)[nH]cnc65)O[C@@H]4COP(=O)(S)O[C@@H]2C3)c(=O)[nH]1` (single isomer, unassigned) [Example 43] are 37 nM, 148 nM and 120%.
In the case of `Nc1nc2c(nnn2[C@@H]2O[C@@H]3COP(=O)(S)O[C@H]4[C@H](F)[C@H](n5ccc6c(=O)[nH]cnc65)O[C@@H]4COP(=O)(S)O[C@@H]2C3)c(=O)[nH]1` (stereo partly drawn) [Example 45, 5-amino-3-[(5S,7R,8R,12aR,14R,15S, 15aR)-15-fluoro-2,10-dioxido-14-(4-oxo-3,4-dihydro-7H-pyrrolo[2,3-d]pyrimidin-7-yl)-2,10-disulfanyl-octahydro-12H-5,8-methanofuro[3,2-l][1,3,6,9,11,2,10]pentaoxadiphosphacyclotetradecin-7-yl]-3,6-dihydro-7H-[1,2,3]triazolo[4,5-d]pyrimidin-7-one], the EC50 worked out at 3 nM on full-length HAQ STING and 85 nM on full-length WT STING. In assay [1], the activation at 30 µM was determined as 135%.
As for `Nc1nc2c(ncn2[C@@H]2O[C@@H]3COP(=O)(S)O[C@H]4C[C@H](n5cc(F)c6c(=O)[nH]cnc65)O[C@@H]4COP(=O)(S)O[C@@H]2[C@@H]3F)c(=O)[nH]1` (single isomer, unassigned) [Example 53], the EC50 on full-length HAQ STING is 167 nM; on full-length WT STING, 253 nM. Moreover, the activation at 30 µM in assay [1] came out at 85%.
In the same order, the values of `Nc1ncnc2c1ncn2[C@@H]1O[C@@H]2CO[P@@](=O)(S)O[C@@H]3[C@H](O)[C@@H](CO[P@@](=O)(S)O[C@H]2[C@H]1O)O[C@H]3n1ccc(=O)n2ccnc12` (single isomer, unassigned) [Example 1] are 77 nM, 1640 nM and 143%.
In the same order, the values of `Nc1ncnc2c1ccn2[C@H]1C[C@@H]2O[P@@](=O)(S)OC[C@H]3O[C@@H](n4ccc(=O)n5ccnc45)[C@H](O[P@](=O)(S)OC[C@H]2O1)[C@@H]3O` [Example 5, 8-[(2S,5R,7R,8R,10R,12aR,14R,15aS,16R)-14-(4-amino-7H-pyrrolo[2,3-d]pyrimidin-7-yl)-16-hydroxy-2,10-dioxido-2,10-disulfanyloctahydro-12H-5,8-methanofuro[3,2-l][1,3,6,9,11,2,10]pentaoxadiphosphacyclotetradecin-7-yl]imidazo [1,2-a]pyrimidin-5(8H)-one] are 563 nM, 10300 nM and 39%.
In the case of `Nc1nc2c(nnn2[C@@H]2O[C@@H]3COP(=O)(S)O[C@H]4C[C@H](n5ccc6c(=O)[nH]cnc65)O[C@@H]4COP(=O)(S)O[C@@H]2C3)c(=O)[nH]1` (single isomer, unassigned) [Example 42], the EC50 was found to be 1 nM at full-length HAQ STING and 46 nM at full-length WT STING. Besides, the “% Effect at 30 μM relative to 2′3′-cGAMP” value in assay [1] came to 72%.
On to `Nc1ncnc2c1ncn2[C@@H]1O[C@@H]2CO[P@@](=O)(S)O[C@@H]3[C@H](O)[C@@H](CO[P@](=O)(S)O[C@H]2[C@@H]1F)O[C@H]3n1ccc(=O)n2ccnc12` [Example 3, 8-[(2S,5R,7R,8R,10R,12aR,14R,15S,15aR, 16R)-14-(6-amino-9H-purin-9-yl)-15-fluoro-16-hydroxy-2,10-dioxido-2,10-disulfanyloctahydro-12H-5,8-methanofuro[3,2-l][1,3,6,9,11,2,10]pentaoxadiphosphacyclotetradecin-7-yl]imidazo [1,2-a]pyrimidin-5(8H)-one], for which the figures for the EC50 at full-length HAQ STING and at full-length WT STING were 140 nM and 1860 nM, respectively. The activation at 30 µM in assay [1] was found to be 20%.
The corresponding values for `Nc1nc2c(ncn2[C@@H]2O[C@@H]3CO[P@](=O)(S)O[C@H]4[C@H](F)[C@H](n5ccc6c(=O)[nH]cnc65)O[C@@H]4CO[P@@](=O)(S)O[C@@H]2C3)c(=O)[nH]1` [Example 41, 2-amino-9-[(2R,5S,7R,8R,10R,12aR,14R,15S,15aR)-15-fluoro-2,10-dioxido-14-(4-oxo-3,4-dihydro-7H-pyrrolo[2,3-d]pyrimidin-7-yl)-2,10-disulfanyl-octahydro-12H-5,8-methanofuro[3,2-l] [1,3,6,9,11,2,10]pentaoxadiphosphacyclotetradecin-7-yl]-l,9-dihydro-6H-purin-6-one] are 2 nM, 124 nM and 156%.
`Nc1ncnc2c1ncn2[C@@H]1O[C@@H]2CO[P@@](=O)(S)O[C@@H]3[C@H](O)[C@@H](CO[P@@](=O)(S)O[C@H]2[C@@H]1F)O[C@H]3n1ccc(=O)c2nccn21` [Example 13, 5-[(2R,5R,7R,8R,10R,12aR,14R,15S,15aR, 16R)-14-(6-amino-9H-purin-9-yl)-15-fluoro-16-hydroxy-2,10-dioxido-2,10-disulfanyloctahydro-12H-5,8-methanofuro[3,2-l][1,3,6,9,11,2,10]pentaoxadiphosphacyclotetradecin-7-yl]imidazo [1,2-b]pyridazin-8(5H)-one]: the EC50 on full-length HAQ STING was found to be 238 nM; on full-length WT STING, 1960 nM. For the same compound, in assay [1], the activation at 30 µM is 334%.
In the case of `Nc1ncnc2c1ncn2[C@@H]1O[C@@H]2CO[P@@](=O)(S)O[C@@H]3C[C@@H](CO[P@@](=O)(S)O[C@H]2[C@@H]1F)O[C@H]3n1ccc(=O)n2ccnc12` [Example 19, 8-[(2R,5S,7R,8R,10R,12aR,14R,15S,15aR)-14-(6-amino-9H-purin-9-yl)-15-fluoro-2,10-dioxido-2,10-disulfanyloctahydro-12H-5,8-methanofuro[3,2-l][11,3,6,9,11,2,10]pentaoxadiphosphacyclotetradecin-7-yl]imidazo[1,2-a]pyrimidin-5(8H)-one], the EC50 is 208 nM at full-length HAQ STING and 902 nM on full-length WT STING. Further, the “% Effect at 30 μM relative to 2′3′-cGAMP” value in assay [1] is on record as 7%.

These data come from patent publication US11685761B2, “Cyclic di-nucleotide compounds as sting agonists” (Merck Sharp & Dohme Corp., priority 2017, dated 2023).
